Tests used:
S-type anion channels = details: proposed secondary HCO3- response mechanism (ref. 10); cited from earlier work
[1] = test system: MPK4/12, HT1 and CBC1 recombinant proteins; assay: in vitro phosphorylation assay: NaHCO3-dependent down-regulation of HT1-mediated CBC1 phosphorylation; format: biochemical, Arabidopsis
[2] = target: T1, MPK4/12, HT1 and CBC1 recombinant proteins (Arabidopsis thaliana, UniProt Q2MHE4); assay: as above; format: biochemical; details: HT1 and CBC1 only, no MPK4/MPK12; 20 mM NaHCO3, 30 min
T1 construct: His; made in house

[3] = target: T2, MPK4/12, HT1 and CBC1 recombinant proteins (Arabidopsis thaliana, UniProt Q2MHE4+Q39024); assay: as above; format: biochemical
T2 construct: His; made in house

MPK4 and HT1 = target: T3, MPK4 and HT1 (Arabidopsis thaliana, UniProt Q2MHE4+Q39024); assay: in vitro pull-down assay, His-HT1 with GST-MPK4; format: binding; details: 20 mM NaHCO3 in all buffers
T3 construct: made in house
T3 sequence (Q39024 whole entry): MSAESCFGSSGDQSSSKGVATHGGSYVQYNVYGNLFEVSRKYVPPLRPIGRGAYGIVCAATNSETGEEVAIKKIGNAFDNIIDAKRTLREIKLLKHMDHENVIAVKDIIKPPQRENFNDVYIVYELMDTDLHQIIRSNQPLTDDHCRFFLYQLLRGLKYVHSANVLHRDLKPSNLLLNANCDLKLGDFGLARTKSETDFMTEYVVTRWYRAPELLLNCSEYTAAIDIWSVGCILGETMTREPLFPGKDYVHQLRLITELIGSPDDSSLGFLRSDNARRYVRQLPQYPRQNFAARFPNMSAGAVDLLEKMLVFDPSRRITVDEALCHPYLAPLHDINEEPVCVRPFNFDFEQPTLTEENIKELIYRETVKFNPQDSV
T3 sequence (Q2MHE4 whole entry): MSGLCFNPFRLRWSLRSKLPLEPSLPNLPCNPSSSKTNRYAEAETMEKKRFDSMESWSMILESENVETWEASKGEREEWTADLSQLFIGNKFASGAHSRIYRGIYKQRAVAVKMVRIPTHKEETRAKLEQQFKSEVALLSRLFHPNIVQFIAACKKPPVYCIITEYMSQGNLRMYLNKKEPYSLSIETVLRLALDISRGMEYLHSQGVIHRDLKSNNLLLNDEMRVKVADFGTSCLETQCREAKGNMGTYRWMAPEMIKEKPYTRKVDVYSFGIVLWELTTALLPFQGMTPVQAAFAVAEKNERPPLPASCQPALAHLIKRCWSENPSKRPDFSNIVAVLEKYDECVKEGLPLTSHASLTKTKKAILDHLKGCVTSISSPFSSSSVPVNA

T2 sequence (Q39024 whole entry): as the sequence (Q39024 whole entry) above
T2 sequence (Q2MHE4 whole entry): as the sequence (Q2MHE4 whole entry) above
T1 sequence (Q2MHE4 whole entry): as above

O=C(O)O [NaHCO3]
modulation of activity of S-type anion channels by HCO3- (S-type anion channels): ~20%
effect of NaHCO3 on CBC1 and histone phosphorylation ([1]; MPK4 or MPK12 added to HT1 and CBC1, 20 mM NaHCO3, 30 min): inhibited both CBC1 phosphorylation and histone phosphorylation
kinase activities of CBC1, HT1 or MPK4 exposed to NaHCO3 individually ([1]; each kinase alone, 20 mM NaHCO3, 30 min): not affected
CBC1 activity in response to NaHCO3 ([1]; only MPK12 and CBC1 in the reaction, no HT1, 20 mM NaHCO3): not affected
HT1 kinase activity in response to NaHCO3 ([1]; only in the presence of MPK12, 20 mM NaHCO3): inhibited
effect of NaHCO3 on CBC1 phosphorylation level [2]: no clear effect
EC50 [3]: ~7.1 mM
effect of NaHCO3 on CBC1 phosphorylation at different pH ([3]; MPK4 and HT1 present, high pH conditions at ≥pH 7.5 (buffers pH 6.5 to 8.5)): inhibited CBC1 phosphorylation
effect of HCO3- on binding between MPK4 and HT1 (MPK4 and HT1): greatly enhanced the binding

From patent US20260078398A1, “PLANTS GENETICALLY ENGINEERED FOR INCREASED WATER USE EFFICIENCY AND CARBON INTAKE AND METHODS FOR MAKING AND USING THEM” (The Regents of the University of California, priority 2022, published 2026)
